According to patent US20260027163A1, “GUT MICROBIOME BACTERIA AND ENZYMES THAT METABOLIZE DIETARY AND MEDICINAL PLANT SMALL MOLECULES TO AFFECT GUT MICROBIOME” (The Children's Medical Center Corporation, priority 2022, published 2026):

Legend:
[1] = tested on: macrophages stimulated with pro-inflammatory LP5; test: Inflammatory cytokine production by stimulated macrophages after saligenin pre-treatment; assay type: cell-based; conditions: in vitro, FIGS. 1A-1B
[2] = molecular target: T1, AhR (Homo sapiens, UniProt P35869); test: Activation of xenobiotic sensor AhR; assay type: cell-based; conditions: FIG. 4
T1 sequence (P35869 11-848): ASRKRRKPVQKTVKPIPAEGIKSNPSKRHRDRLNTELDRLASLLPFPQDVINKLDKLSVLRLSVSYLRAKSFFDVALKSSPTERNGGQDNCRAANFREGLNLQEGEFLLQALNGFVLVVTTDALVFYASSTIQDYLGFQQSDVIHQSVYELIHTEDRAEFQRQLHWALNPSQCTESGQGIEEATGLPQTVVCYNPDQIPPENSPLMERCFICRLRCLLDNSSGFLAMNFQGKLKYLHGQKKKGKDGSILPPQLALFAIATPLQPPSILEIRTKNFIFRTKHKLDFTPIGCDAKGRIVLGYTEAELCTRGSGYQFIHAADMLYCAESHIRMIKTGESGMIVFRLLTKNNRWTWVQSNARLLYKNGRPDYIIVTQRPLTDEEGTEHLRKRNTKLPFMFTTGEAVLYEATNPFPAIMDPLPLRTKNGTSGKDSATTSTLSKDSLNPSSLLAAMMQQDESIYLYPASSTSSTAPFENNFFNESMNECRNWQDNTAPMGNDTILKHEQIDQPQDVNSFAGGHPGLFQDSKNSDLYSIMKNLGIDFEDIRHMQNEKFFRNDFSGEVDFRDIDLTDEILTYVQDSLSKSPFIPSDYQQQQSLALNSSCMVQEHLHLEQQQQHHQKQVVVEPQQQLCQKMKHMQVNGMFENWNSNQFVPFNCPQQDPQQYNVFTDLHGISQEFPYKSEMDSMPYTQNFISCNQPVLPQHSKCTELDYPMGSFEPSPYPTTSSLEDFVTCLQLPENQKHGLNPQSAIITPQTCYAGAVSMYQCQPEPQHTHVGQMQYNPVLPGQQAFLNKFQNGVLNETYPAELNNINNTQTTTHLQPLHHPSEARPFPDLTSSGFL
Excerpt: Saligenin […] AhR, a xenobiotic immune sensor that drives pro-homeostatic processes in gut epithelia and immune cells.

[3] = tested on: DSS-induced intestinal inflammation; test: DSS-induced colitis, pure compound delivered orally; assay type: in vivo, mice
Excerpt: (§1) The present disclosure identifies and characterizes a novel mechanism by which the gut microbiome transforms abundant and chemically diverse small molecule components of human diet to drive pro-homeostatic programs in the intestine.

[4] = molecular target: T2, AhR (Mus musculus, UniProt P30561); test: In vivo AhR activation in colitis, reversal with competitive AhR antagonist; conditions: FIG. 9
T2 construct: endogenous in cells
T2 sequence (P30561 10-848): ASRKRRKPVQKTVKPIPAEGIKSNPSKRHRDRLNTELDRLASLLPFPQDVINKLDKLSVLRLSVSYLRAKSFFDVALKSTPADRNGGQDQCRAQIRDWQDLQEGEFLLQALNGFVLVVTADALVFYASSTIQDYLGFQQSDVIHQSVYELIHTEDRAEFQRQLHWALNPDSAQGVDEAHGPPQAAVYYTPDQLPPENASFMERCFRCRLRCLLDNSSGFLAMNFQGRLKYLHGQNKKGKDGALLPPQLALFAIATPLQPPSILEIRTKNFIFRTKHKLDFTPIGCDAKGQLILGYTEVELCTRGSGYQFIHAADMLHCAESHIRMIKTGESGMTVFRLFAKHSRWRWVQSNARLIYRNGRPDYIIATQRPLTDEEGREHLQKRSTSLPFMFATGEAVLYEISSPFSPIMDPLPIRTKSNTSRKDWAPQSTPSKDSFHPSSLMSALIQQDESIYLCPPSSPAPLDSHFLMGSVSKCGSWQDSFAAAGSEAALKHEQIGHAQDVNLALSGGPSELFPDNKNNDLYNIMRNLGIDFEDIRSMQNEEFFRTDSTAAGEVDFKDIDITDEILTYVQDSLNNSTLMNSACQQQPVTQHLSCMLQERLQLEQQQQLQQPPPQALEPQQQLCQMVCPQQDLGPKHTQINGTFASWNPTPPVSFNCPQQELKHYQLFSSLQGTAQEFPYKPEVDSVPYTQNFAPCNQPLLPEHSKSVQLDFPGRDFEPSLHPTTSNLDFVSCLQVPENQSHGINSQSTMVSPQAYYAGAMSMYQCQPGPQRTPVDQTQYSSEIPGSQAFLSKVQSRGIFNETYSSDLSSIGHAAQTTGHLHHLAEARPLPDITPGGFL
Excerpt: as §1

[5] = tested on: DSS-induced colitis; test: DSS-induced colitis, bioactivation of salicin by Bacteroides uniformis; assay type: in vivo; conditions: salicin bioactivated to saligenin by Bacteroides uniformis; FIGS. 7A-7B
Excerpt: as §1

SMILES | inflammatory cytokine production [1] | AhR activation [2] | Th1-effector cells ([3]; DSS exposure, FIGS. 6A-6B) | colonic IFN-gamma ([3]; DSS exposure, FIGS. 11A-11B) | protection against DSS-induced intestinal inflammation ([3]; pure compound delivered orally daily for 7 days, mice, FIGS. 8A-8B) | AhR activation in vivo, reversibility by antagonist [4] | protection against DSS-induced colitis [5]
OCc1ccccc1O [saligenin] | attenuated inflammatory cytokine production | activated | decrease in Th1-effector cells | decrease in colonic IFN-gamma | protected against DSS-induced intestinal inflammation | can be reversed with a competitive AhR antagonist | –
OCc1ccccc1O[C@@H]1O[C@H](CO)[C@@H](O)[C@H](O)[C@H]1O [salicin] | – | – | – | – | – | – | protected against DSS-induced colitis
